Values quoted from earlier work as cited in patent US7892838B2, “Method for the in vivo modification of the synthesis activity of a metabolite by means of the modification of a gene the activity of which is not the original activity” (Institut Pasteur, priority 2003, dated 2011).

Test system: HIV (human immunodeficiency virus)

| Compound | inhibition of the replication of HIV |
| --- | --- |
| Nc1ncnc2c1ncn2[C@H]1CC[C@@H](CO)O1 [ddA, 2′,3′-dideoxyadenosine] | effectively inhibit the replication of HIV |
| OC[C@@H]1CC[C@H](n2cnc3c(O)ncnc32)O1 [ddI, 2′,3′-dideoxyinosine] | effectively inhibit the replication of HIV |
